Assays:
Type in all cases: in vivo
Settings in all cases: 50 ppm
[1] = test system: Blumeria graminis f. sp. tritici; test: Test C: test suspension sprayed on wheat seedlings, inoculated next day with Blumeria graminis f. sp. tritici (wheat powdery mildew); visual disease rating (100 = 100% disease control, 0 = no control; dash = not tested)
How it was run: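 Wheat seedlings were sprayed to run-off with test suspension, then dusted next day with Blumeria graminis f. sp. tritici spores. After 8 days at 20 °C in a growth chamber, disease was rated visually as percent control relative to untreated controls.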

[2] = test system: Puccinia recondita f. sp. tritici; test: Test B: test solution sprayed on wheat seedlings, inoculated next day with Puccinia recondita f. sp. tritici (wheat leaf rust); disease rating (100 = 100% disease control, 0 = no control; dash = not tested)
Text: The resulting test suspensions were then used in Tests A-F. The test solution was sprayed to the point of run-off on wheat seedlings. […] A rating of 100 indicates 100% disease control and a rating of 0 indicates no disease control (relative to the controls). A dash (—) indicates the compound was not tested.

Alternaria solani = test: Test F: test suspension sprayed on tomato seedlings, inoculated next day with Alternaria solani (tomato early blight); visual disease rating (100 = 100% disease control, 0 = no control; dash = not tested)
How it was run: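 Tomato seedlings sprayed to run-off with test suspension, inoculated next day with A. solani spores, held saturated at 27° C. for 48 h, then 20° C. for 3 days. Disease visually rated as % control relative to untreated controls.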

Botrytis cinerea = test: Test E: test suspension sprayed on tomato seedlings, inoculated next day with Botrytis cinerea (tomato Botrytis); visual disease rating (100 = 100% disease control, 0 = no control; dash = not tested)
How it was run: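 Tomato seedlings were sprayed to run-off and inoculated next day with Botrytis cinerea spores. They were held 48 h at 20° C in saturated humidity, then 3 days at 24° C. Disease control was rated visually against controls (100 = full, 0 = none).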

Zymoseptoria tritici = test: Test A: test solution sprayed on wheat seedlings, inoculated next day with Zymoseptoria tritici (wheat leaf blotch); disease rating (100 = 100% disease control, 0 = no control; dash = not tested)
How it was run: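 Wheat seedlings sprayed to run-off with test solution, inoculated next day with Z. tritici spores, held 48 h at 24° C in saturated atmosphere, then 17 days at 20° C before rating. Scores are % disease control relative to controls (100 = full control, 0 = none).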

Phakopsora pachyrhizi = test: Test D: test solution sprayed on soybean seedlings, inoculated next day with Phakopsora pachyrhizi (Asian soybean rust); visual disease rating (100 = 100% disease control, 0 = no control; dash = not tested)
How it was run: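 Compounds predissolved in acetone (3% of final volume), suspended at ppm concentrations in 50/50 acetone/water with 250 ppm PEG400, sprayed to run-off on soybean seedlings. Inoculated next day with spores, 24 h saturated atmosphere at 22 °C, then 8 days growth chamber at 22 °C; visual rating, 100 = full control.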

Structure (SMILES): COc1cc(OC)c(Br)c(-c2nn(C)c(=O)c(OC)c2-c2ccc(F)cc2Cl)c1 [Compound 79]
- Test C disease control rating [1]: 100%
- Test B disease control rating [2]: 100%
- Test F disease control rating (Alternaria solani): 100%
- Test E disease control rating (Botrytis cinerea): 97%
- Test A disease control rating (Zymoseptoria tritici): 100%
- Test D disease control rating (Phakopsora pachyrhizi): 100%

Structure (SMILES): Cn1nc(-c2cc(F)ccc2Cl)c(-c2ccc(F)cc2Cl)c(Cl)c1=O [Compound 82]
- Test C disease control rating [1]: 100%
- Test B disease control rating [2]: 100%
- Test F disease control rating (Alternaria solani): 100%
- Test E disease control rating (Botrytis cinerea): 64%
- Test A disease control rating (Zymoseptoria tritici): 100%
- Test D disease control rating (Phakopsora pachyrhizi): 100%

Structure (SMILES): COc1ccc(Cl)c(-c2nn(C)c(=O)c(Cl)c2-c2ccccc2)c1 [Compound 95]
- Test C disease control rating [1]: 97%
- Test B disease control rating [2]: 99%
- Test F disease control rating (Alternaria solani): 24%
- Test E disease control rating (Botrytis cinerea): 96%
- Test A disease control rating (Zymoseptoria tritici): 100%
- Test D disease control rating (Phakopsora pachyrhizi): 0%

Structure (SMILES): COc1cc(F)c(-c2c(-c3cc(OC)ccc3Cl)nn(C)c(=O)c2Cl)c(F)c1 [Compound 96]
- Test C disease control rating [1]: 97%
- Test B disease control rating [2]: 100%
- Test F disease control rating (Alternaria solani): 100%
- Test E disease control rating (Botrytis cinerea): 96%
- Test A disease control rating (Zymoseptoria tritici): 100%
- Test D disease control rating (Phakopsora pachyrhizi): 100%

Structure (SMILES): COc1ccc(Cl)c(-c2nn(C)c(=O)c(Cl)c2-c2ccc(F)cc2Br)c1 [Compound 97]
- Test C disease control rating [1]: 100%
- Test B disease control rating [2]: 100%
- Test F disease control rating (Alternaria solani): 99%
- Test E disease control rating (Botrytis cinerea): 96%
- Test A disease control rating (Zymoseptoria tritici): 100%
- Test D disease control rating (Phakopsora pachyrhizi): 100%

Structure (SMILES): CCn1nc(-c2cc(OC)cc(OC)c2Br)c(-c2c(F)cccc2F)c(C#N)c1=O [Compound 100]
- Test C disease control rating [1]: 99%
- Test B disease control rating [2]: 100%
- Test F disease control rating (Alternaria solani): 93%
- Test E disease control rating (Botrytis cinerea): 99%
- Test A disease control rating (Zymoseptoria tritici): 100%
- Test D disease control rating (Phakopsora pachyrhizi): 100%

Structure (SMILES): COc1ccc(Cl)c(-c2nn(C)c(=O)c(OC)c2-c2ccc(F)cc2Cl)c1 [Compound 101]
- Test C disease control rating [1]: 99%
- Test B disease control rating [2]: 100%
- Test F disease control rating (Alternaria solani): 99%
- Test E disease control rating (Botrytis cinerea): 99%
- Test A disease control rating (Zymoseptoria tritici): 100%
- Test D disease control rating (Phakopsora pachyrhizi): 100%

Structure (SMILES): COc1ccc(Cl)c(-c2nn(C)c(=O)c(OC)c2-c2ccc(F)cc2Br)c1 [Compound 103]
- Test C disease control rating [1]: 100%
- Test B disease control rating [2]: 100%
- Test F disease control rating (Alternaria solani): 99%
- Test E disease control rating (Botrytis cinerea): 91%
- Test A disease control rating (Zymoseptoria tritici): 100%
- Test D disease control rating (Phakopsora pachyrhizi): 97%

Structure (SMILES): Cn1nc(-c2cccc(Cl)c2Cl)c(-c2ccc(F)cc2Cl)c(Cl)c1=O [Compound 104]
- Test C disease control rating [1]: 100%
- Test B disease control rating [2]: 100%
- Test F disease control rating (Alternaria solani): 99%
- Test E disease control rating (Botrytis cinerea): 97%
- Test A disease control rating (Zymoseptoria tritici): 100%
- Test D disease control rating (Phakopsora pachyrhizi): 100%

Structure (SMILES): Cn1nc(-c2cccc(Cl)c2F)c(-c2ccc(F)cc2Cl)c(Cl)c1=O [Compound 105]
- Test C disease control rating [1]: 99%
- Test B disease control rating [2]: 99%
- Test F disease control rating (Alternaria solani): 99%
- Test E disease control rating (Botrytis cinerea): 96%
- Test A disease control rating (Zymoseptoria tritici): 100%
- Test D disease control rating (Phakopsora pachyrhizi): 79%

Structure (SMILES): Cn1nc(-c2cccc(F)c2F)c(-c2ccc(F)cc2Cl)c(Cl)c1=O [Compound 107]
- Test C disease control rating [1]: 100%
- Test B disease control rating [2]: 100%
- Test F disease control rating (Alternaria solani): 100%
- Test E disease control rating (Botrytis cinerea): 97%
- Test A disease control rating (Zymoseptoria tritici): 100%
- Test D disease control rating (Phakopsora pachyrhizi): 100%

Structure (SMILES): COc1c(-c2ccc(F)cc2Cl)c(-c2cccc(Cl)c2Cl)nn(C)c1=O [Compound 108]
- Test C disease control rating [1]: 100%
- Test B disease control rating [2]: 100%
- Test F disease control rating (Alternaria solani): 99%
- Test E disease control rating (Botrytis cinerea): 98%
- Test A disease control rating (Zymoseptoria tritici): 100%
- Test D disease control rating (Phakopsora pachyrhizi): 70%

Structure (SMILES): COc1c(-c2ccc(F)cc2Cl)c(-c2cccc(Cl)c2F)nn(C)c1=O [Compound 109]
- Test C disease control rating [1]: 99%
- Test B disease control rating [2]: 74%
- Test F disease control rating (Alternaria solani): 85%
- Test E disease control rating (Botrytis cinerea): 96%
- Test A disease control rating (Zymoseptoria tritici): 100%
- Test D disease control rating (Phakopsora pachyrhizi): 0%

Structure (SMILES): COc1c(-c2ccc(F)cc2Cl)c(-c2cccc(F)c2Br)nn(C)c1=O [Compound 110]
- Test C disease control rating [1]: 100%
- Test B disease control rating [2]: 100%
- Test F disease control rating (Alternaria solani): 99%
- Test E disease control rating (Botrytis cinerea): 96%
- Test A disease control rating (Zymoseptoria tritici): 100%
- Test D disease control rating (Phakopsora pachyrhizi): 79%

Structure (SMILES): COc1c(-c2ccc(F)cc2Cl)c(-c2cccc(F)c2F)nn(C)c1=O [Compound 116]
- Test C disease control rating [1]: 99%
- Test B disease control rating [2]: 100%
- Test F disease control rating (Alternaria solani): 100%
- Test E disease control rating (Botrytis cinerea): 98%
- Test A disease control rating (Zymoseptoria tritici): 100%
- Test D disease control rating (Phakopsora pachyrhizi): 52%

Structure (SMILES): COc1ccc(Cl)c(-c2nn(C)c(=O)cc2-c2ccc(F)cc2Cl)c1 [Compound 117]
- Test C disease control rating [1]: 93%
- Test B disease control rating [2]: 98%
- Test F disease control rating (Alternaria solani): 0%
- Test E disease control rating (Botrytis cinerea): 99%
- Test A disease control rating (Zymoseptoria tritici): 99%
- Test D disease control rating (Phakopsora pachyrhizi): 47%

Structure (SMILES): COc1ccc(Br)c(-c2nn(C)c(=O)c(Cl)c2-c2ccc(F)cc2Cl)c1 [Compound 118]
- Test C disease control rating [1]: 99%
- Test B disease control rating [2]: 100%
- Test F disease control rating (Alternaria solani): 100%
- Test E disease control rating (Botrytis cinerea): 98%
- Test A disease control rating (Zymoseptoria tritici): 99%
- Test D disease control rating (Phakopsora pachyrhizi): 100%

Structure (SMILES): Cn1nc(-c2cc(F)ccc2Br)c(-c2ccc(F)cc2Cl)c(Cl)c1=O [Compound 119]
- Test C disease control rating [1]: 100%
- Test B disease control rating [2]: 100%
- Test F disease control rating (Alternaria solani): 100%
- Test E disease control rating (Botrytis cinerea): 96%
- Test A disease control rating (Zymoseptoria tritici): 100%
- Test D disease control rating (Phakopsora pachyrhizi): 99%

Structure (SMILES): COc1c(-c2ccc(F)cc2Cl)c(-c2cc(F)ccc2Cl)nn(C)c1=O [Compound 120]
- Test C disease control rating [1]: 99%
- Test B disease control rating [2]: 100%
- Test F disease control rating (Alternaria solani): 0%
- Test E disease control rating (Botrytis cinerea): 33%
- Test A disease control rating (Zymoseptoria tritici): 100%
- Test D disease control rating (Phakopsora pachyrhizi): 77%

Structure (SMILES): COc1c(-c2ccc(F)cc2Cl)c(-c2cc(F)ccc2Br)nn(C)c1=O [Compound 121]
- Test C disease control rating [1]: 99%
- Test B disease control rating [2]: 100%
- Test F disease control rating (Alternaria solani): 99%
- Test E disease control rating (Botrytis cinerea): 99%
- Test A disease control rating (Zymoseptoria tritici): 100%
- Test D disease control rating (Phakopsora pachyrhizi): 72%

Structure (SMILES): COCc1c(-c2ccc(F)cc2Cl)c(-c2ccc(F)cc2Cl)nn(C)c1=O [Compound 122]
- Test C disease control rating [1]: 98%
- Test B disease control rating [2]: 0%
- Test F disease control rating (Alternaria solani): 0%
- Test E disease control rating (Botrytis cinerea): 53%
- Test A disease control rating (Zymoseptoria tritici): 100%
- Test D disease control rating (Phakopsora pachyrhizi): 0%

Structure (SMILES): Cn1nc(-c2ccc(F)cc2Cl)c(-c2ccc(F)cc2Cl)c(C(C)(C)O)c1=O [Compound 123]
- Test C disease control rating [1]: 0%
- Test B disease control rating [2]: 0%
- Test F disease control rating (Alternaria solani): 0%
- Test E disease control rating (Botrytis cinerea): 0%
- Test A disease control rating (Zymoseptoria tritici): 0%
- Test D disease control rating (Phakopsora pachyrhizi): 68%

Structure (SMILES): CC(=O)c1c(-c2ccc(F)cc2Cl)c(-c2ccc(F)cc2Cl)nn(C)c1=O [Compound 124]
- Test C disease control rating [1]: 95%
- Test B disease control rating [2]: 0%
- Test F disease control rating (Alternaria solani): 0%
- Test E disease control rating (Botrytis cinerea): 88%
- Test A disease control rating (Zymoseptoria tritici): 100%
- Test D disease control rating (Phakopsora pachyrhizi): 73%

Structure (SMILES): CCCc1c(-c2ccc(F)cc2Cl)c(-c2cc(OC)ccc2Cl)nn(C)c1=O [Compound 125]
- Test C disease control rating [1]: 97%
- Test B disease control rating [2]: 0%
- Test F disease control rating (Alternaria solani): 0%
- Test E disease control rating (Botrytis cinerea): 99%
- Test A disease control rating (Zymoseptoria tritici): 100%
- Test D disease control rating (Phakopsora pachyrhizi): 17%

Structure (SMILES): Cn1nc(-c2cc(F)ccc2Cl)c(-c2ccc(F)cc2Cl)cc1=O [Compound 126]
- Test C disease control rating [1]: 98%
- Test B disease control rating [2]: 74%
- Test F disease control rating (Alternaria solani): 15%
- Test E disease control rating (Botrytis cinerea): 98%
- Test A disease control rating (Zymoseptoria tritici): 95%
- Test D disease control rating (Phakopsora pachyrhizi): 0%

Structure (SMILES): Cc1c(-c2ccc(F)cc2Cl)c(-c2cc(F)ccc2Cl)nn(C)c1=O [Compound 128]
- Test C disease control rating [1]: 100%
- Test B disease control rating [2]: 100%
- Test F disease control rating (Alternaria solani): 100%
- Test E disease control rating (Botrytis cinerea): 98%
- Test A disease control rating (Zymoseptoria tritici): 100%
- Test D disease control rating (Phakopsora pachyrhizi): 99%

Structure (SMILES): CCc1c(-c2ccc(F)cc2Cl)c(-c2cc(F)ccc2Cl)nn(C)c1=O [Compound 129]
- Test C disease control rating [1]: 100%
- Test B disease control rating [2]: 100%
- Test F disease control rating (Alternaria solani): 100%
- Test E disease control rating (Botrytis cinerea): 99%
- Test A disease control rating (Zymoseptoria tritici): 100%
- Test D disease control rating (Phakopsora pachyrhizi): 67%

— US20230095836A1, “SUBSTITUTED 5,6-DIPHENYL-3(2H)-PYRIDAZINONES FOR USE AS FUNGICIDES” (FMC Corporation, priority 2020, published 2023)
